Data on 39 compounds can be found in patent publication US20260258050A1, “IMMUNOMODULATOR” (HITGEN INC., priority 2023, published 2026).

pIC50: −log10 of the molar value. Bounds are passed on as bounds.

In the test the target is T1, Human IL-17A (Homo sapiens, UniProt Q16552).
T1 sequence (Q16552 20-155 limits assumed): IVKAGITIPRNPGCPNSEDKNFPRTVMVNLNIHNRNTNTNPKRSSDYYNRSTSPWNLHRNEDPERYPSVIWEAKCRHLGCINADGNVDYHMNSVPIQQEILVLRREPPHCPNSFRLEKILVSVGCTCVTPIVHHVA
The test is described as follows: IL-17A enzyme-linked immunosorbent assay (competitive ELISA, IL-17A/IL-17Ra receptor-ligand binding). On the set-up: purchased Sino Biological Inc. 12047-H07B. The settings on record: human IL-17A coated plate, human IL-17Ra, read-out: IC50, inhibitory activity of compounds on human IL-17A. How it is done:
Experimental Example 1 IL-17A Enzyme-Linked Immunosorbent Assay (ELISA)
The inhibitory effects of human IL-17A inhibitors on receptor-ligand binding were quantitatively determined by a competitive enzyme-linked immunosorbent assay (ELISA). The ELISA was performed through the following steps.
Human IL-17A (Sino Biological Inc., Cat #12047-H07B) was diluted with coating buffer (50 mM phosphate-buffered saline (PBS), pH 7.4) to give an IL-17A concentration of 0.2 μg/ml. 100 μL of the resulting solution was added to each well of a 96-well plate, and the plate was incubated at 37° C. for 30 min. In a blank group, 100 100 μL of the coating buffer was added instead of the IL-17A solution.
The plate was washed four times with 10 mM phosphate-buffered saline containing 0.05% Tween-20 (PBST, pH 7.4). 200 μL of PBST was used per well for each wash. After the final wash, the plate was tapped dry on absorbent paper.
Fresh 5% (w/v) skim milk solution was prepared before the experiment. For example, 5 g of skim milk powder (Bio-Rad, 170-6404) was completely dissolved in 100 mL of 10 mM PBST. 200 μL of the 5% (w/v) skim milk solution was added to each well, and the plate was incubated on a shaker at 25° C. for 30 min.
(S4) Preparation of 100× to-be-Tested Compound Solutions
During step (S3), the to-be-tested compound solutions were prepared, respectively. Each powdered compound was dissolved in dimethyl sulfoxide (DMSO) to reach a storage concentration of 10 mM. The to-be-tested compound solutions were then serially diluted four-fold with DMSO to obtain nine storage concentrations ranging from […].
(S6) Pre-incubation of IL-17A with to-be-tested compound solutions
89 μL of PBST and 1 μL of each of the to-be-tested compound solutions were added to each well and mixed. The plate was pre-incubated at 25° C. for 10 min. In the blank group and the control group, 1 μL of DMSO was added instead of the to-be-tested compound solutions.
(S7) Incubation with Human Interleukin-17 Receptor a (IL-17Ra)
10 μL of 16 nM human IL-17Ra (Sino Biological Inc., Cat #10895-H03H) was added, followed by incubation on a shaker at 25° C. for 30 min. The receptor solution was prepared in 10 mM PBST.
(S9) Incubation with Horseradish Peroxidase-Conjugated Antibody
100 μL of mouse anti-Fc tag horseradish peroxidase (HRP)-conjugated antibody (Sino Biological Inc., Cat #10702-MM01T-H) was added to each well. The plate was incubated on a shaker at 25° C. for 30 min. The antibody was diluted with 5% (w/v) skim milk solution at 1:5,000 (v/v).
100 μL of 3,3′,5,5′-tetramethylbenzidine (TMB) substrate solution (BD, Cat #555214) was added to each well. Substrate A and substrate B were freshly mixed at a volume ratio of 1:1 before use. The plate was incubated in the dark at 25° C. for 5-15 min.
(S12) Termination and Detection
The color reaction was terminated by addition of 2.5 M hydrochloric acid (HCl). Absorbance was measured at 450 nm using a BMG PHERStar microplate reader.
(S13) Calculation of Half-Maximal Inhibitory Concentration (IC50)
The relative percent residual activity at each compound concentration was calculated according to Equation 1. The IC50 value of each test compound was then calculated in GraphPad 6 using the equation for log(inhibitor) versus normalized response with variable slope, as shown in Equation 2.
relative percent residual activity (%)=[(absorbance of sample−absorbance of blank group)/(absorbance of control group−absorbance of blank group)]%. Equation 1: […]
The compounds prepared in the above examples were tested for IL-17A inhibitory activity according to the above method.
`Cc1[nH]nc2c1-c1cc(F)c(NC(=O)[C@@H](NC(=O)c3ccnn3C3CSC3)C(C3CC3)C3CC3)cc1COCC2` [compound 112]: the negative-log IC50 (pIC50) is at least 7.30. The value for `Cc1[nH]nc2c1-c1cnc(NC(=O)[C@@H](NC(=O)c3ccnn3C(C)C)C(C3CC3)C3CC3)cc1CN(C1(C(F)(F)F)CC1)C(=O)C2` [compound 208] was at least 7.30; that for `Cc1[nH]nc2c1-c1cc(F)c(NC(=O)[C@@H](NC(=O)c3ccnn3CC3(C(F)(F)F)CC3)C(C3CC3)C3CC3)cc1COCC2` [compound 91] was 6.82 to 7.30; that for `Cc1[nH]nc2c1-c1cc(F)c(NC(=O)[C@@H](NC(=O)c3ccnn3CCCF)C(C3CC3)C3CC3)cc1CN(C(C)C(F)(F)F)C(=O)C2` (mixture of isomers) [compound 249] was at least 7.30. Under `Cc1[nH]nc2c1-c1cnc(NC(=O)[C@@H](NC(=O)c3ccnn3CCCF)C(C3CC3)C3CC3)cc1CN(C(C)C(F)(F)F)C(=O)C2` (mixture of isomers) [compound 226] stands at least 7.30; under `Cc1[nH]nc2c1-c1cc(F)c(NC(=O)[C@@H](NC(=O)c3ccnn3C(F)F)C(C3CC3)C3CC3)cc1COCC2` [compound 83], 6.82 to 7.30; under `Cc1[nH]nc2c1-c1cc(F)c(NC(=O)[C@@H](NC(=O)c3ccnn3CCCN(C)C)C(C3CC3)C3CC3)cc1COCC2` [compound 85], 6.82 to 7.30. The value for `CCn1nccc1C(=O)N[C@H](C(=O)Nc1ccc2c(c1)CCOCc1n[nH]c(C)c1-2)C(C1CC1)C1CC1` [compound 14] was 6.82 to 7.30; that for `CC(C)=C(F)C(=O)N[C@H](C(=O)Nc1cc2c(cc1F)-c1c(n[nH]c1C)CC(=O)N(C(C)C(F)(F)F)C2)C(C1CC1)C1CC1` (mixture of isomers) [compound 252] was at least 7.30. For the compound `Cc1[nH]nc2c1-c1cc(F)c(NC(=O)[C@@H](NC(=O)c3ccnn3C(C)C)C(C3CC3)C3CC3)cc1CN(C1(C(F)(F)F)CC1)C(=O)C2` [compound 209], the pIC50 is at least 7.30. The value for `Cc1nonc1C(=O)N[C@H](C(=O)Nc1cc2c(cc1F)-c1c(n[nH]c1C)CCOC2)C(C1CC1)C1CC1` [compound 20] was at least 7.30; that for `Cc1[nH]nc2c1-c1cc(F)c(NC(=O)[C@@H](NC(=O)c3ccnn3CCOC(F)F)C(C3CC3)C3CC3)cc1COCC2` [compound 107] was at least 7.30. Under `Cc1[nH]nc2c1-c1cc(F)c(NC(=O)[C@@H](NC(=O)c3cnnn3C(C)C)C(C3CC3)C3CC3)cc1COCC2` [compound 231] stands at least 7.30; under `COC(=O)N[C@H](C(=O)Nc1cc2c(cc1F)-c1c(n[nH]c1C)CCOC2)C(C1CC1)C1CC1` [compound 121], 6.82 to 7.30; under `Cc1[nH]nc2c1-c1cc(F)c(NC(=O)[C@@H](NC(=O)c3ccnn3C(CF)CF)C(C3CC3)C3CC3)cc1COCC2` [compound 95], at least 7.30. Under `CC(C)=C(F)C(=O)N[C@H](C(=O)Nc1cc2c(cn1)-c1c(n[nH]c1C)CCN(C1CC1)C2)C(C1CC1)C1CC1` [compound 223] stands at least 7.30.

For the compound `Cc1nonc1C(=O)N[C@H](C(=O)Nc1ccc2c(c1)COCCc1n[nH]c(C)c1-2)C(C1CC1)C1CC1` [compound 4], the pIC50 was at least 7.30. Regarding `COCCN1Cc2cc(NC(=O)[C@@H](NC(=O)c3nonc3C)C(C3CC3)C3CC3)c(F)cc2-c2c(n[nH]c2C)CC1=O` [compound 141], the pIC50 is at least 7.30. Under `Cc1[nH]nc2c1-c1cc(F)c(NC(=O)[C@@H](NC(=O)c3ccnn3C(C)C)C(C3CC3)C3CC3)cc1CN(C(C)(C)C(F)(F)F)CC2` [compound 211] stands at least 7.30. Turning to `Cc1[nH]nc2c1-c1cnc(NC(=O)C(NC(=O)c3conc3C(C)C)C(C3CC3)C3CC3)cc1CN(C(C)C(F)(F)F)C(=O)C2` (racemic) [compound 225], the pIC50 was at least 7.30. The value for `CCc1nonc1C(=O)N[C@H](C(=O)Nc1ccc2c(c1)COCCc1n[nH]c(C)c1-2)C(C1CC1)C1CC1` [compound 5] was at least 7.30; that for `Cc1[nH]nc2c1-c1cnc(NC(=O)[C@@H](NC(=O)c3ccnn3C(C)C)C(C3CC3)C3CC3)cc1CN(C(C)(C)C(F)(F)F)C(=O)C2` [compound 206] was at least 7.30. Under `Cc1[nH]nc2c1-c1cc(F)c(NC(=O)[C@@H](NC(=O)c3ccnn3[C@@H](C)CO)[C@H]3CC[C@H](C)CC3)cc1COCC2` [compound 47] stands at least 7.30. Under `C=C(F)C(=O)N[C@H](C(=O)Nc1cc2c(cc1F)-c1c(n[nH]c1C)CC(=O)N(C(C)C(F)(F)F)C2)C(C1CC1)C1CC1` (mixture of isomers) [compound 253] stands at least 7.30; under `Cc1[nH]nc2c1-c1cnc(NC(=O)[C@@H](NC(=O)c3cnnn3C(C)C)C(C3CC3)C3CC3)cc1CN(C1CC1)CC2` [compound 220], at least 7.30. Take `Cc1[nH]nc2c1-c1cc(F)c(NC(=O)C(NC(=O)c3ccnn3C(C)C)C3CCC(F)(F)CC3)cc1COCC2` (single isomer, unassigned) [compound 38a]: the pIC50 was at least 7.30. The value for `CO[C@@H](C)Cn1nccc1C(=O)N[C@H](C(=O)Nc1cc2c(cc1F)-c1c(n[nH]c1C)CCOC2)C(C1CC1)C1CC1` [compound 78] was at least 7.30; that for `Cc1[nH]nc2c1-c1cc(F)c(NC(=O)[C@@H](NC(=O)c3conc3C(C)C)C(C3CC3)C3CC3)cc1CN(C(C)C(F)(F)F)C(=O)C2` (mixture of isomers) [compound 248] was at least 7.30; that for `Cc1[nH]nc2c1-c1cc(F)c(NC(=O)[C@@H](NC(=O)C3(F)CC3)C(C3CC3)C3CC3)cc1COCC2` [compound 122] was 6.82 to 7.30. As for `Cc1[nH]nc2c1-c1cc(F)c(NC(=O)[C@@H](NC(=O)c3ccnn3[C@@H](C)CO)C3CCCCC3)cc1COCC2` [compound 50], the negative logarithm of the IC50 (pIC50) was 6.82 to 7.30. Take `Cc1[nH]nc2c1-c1cnc(NC(=O)[C@@H](NC(=O)c3ccnn3C(C)C)C(C3CC3)C3CC3)c(F)c1COCC2` [compound 128]: the negative logarithm of the IC50 (pIC50) was at least 7.30. Consider `CCc1nonc1C(=O)N[C@H](C(=O)Nc1cc2c(cc1F)-c1c(n[nH]c1C)CCOC2)C(C1CC1)C1CC1` [compound 21], for which the pIC50 is at least 7.30. Under `Cc1[nH]nc2c1-c1cc(F)c(NC(=O)[C@@H](NC(=O)c3ccnc(CC(F)(F)F)c3)C(C3CC3)C3CC3)cc1COCC2` [compound 109] stands 6.82 to 7.30; under `CC(C)=C(F)C(=O)N[C@H](C(=O)Nc1cc2c(cn1)-c1c(n[nH]c1C)CC(=O)N(C(C)C(F)(F)F)C2)C(C1CC1)C1CC1` (mixture of isomers) [compound 256], at least 7.30. Under `Cc1[nH]nc2c1-c1cc(F)c(NC(=O)[C@@H](NC(=O)c3ccnn3[C@@H](C)CO)C(C3CC3)C3CC3)cc1COCC2` [compound 55] stands at least 7.30; under `Cc1[nH]nc2c1-c1cc(F)c(NC(=O)[C@@H](NC(=O)c3ccnn3CCS(C)(=O)=O)C(C3CC3)C3CC3)cc1COCC2` [compound 63], at least 7.30. Under `Cc1[nH]nc2c1-c1cc(F)c(NC(=O)[C@@H](NC(=O)c3ccnn3C(C)C)C(C3CC3)C3CC3)cc1CN(C1(C(F)(F)F)CC1)CC2` [compound 213] stands at least 7.30. As to `Cc1[nH]nc2c1-c1cnc(NC(=O)[C@@H](NC(=O)c3cnnn3C(C)C)C(C3CC3)C3CC3)cc1COCC2` [compound 243], the negative logarithm of the IC50 (pIC50) was at least 7.30.

As to `Cc1[nH]nc2c1-c1ccc(NC(=O)[C@@H](NC(=O)c3ccnn3[C@@H](C)CO)C(C3CC3)C3CC3)cc1COCC2` [compound 51], the negative logarithm of the IC50 (pIC50) is at least 7.30.
